Drawing on ChEMBL document CHEMBL1955850, “Syntheses of structurally-simplified and fluorescently-labeled neovibsanin derivatives and analysis of their neurite outgrowth activity in PC12 cells” (2012), this text covers Activity for 13 compounds.

Active and inactive are the calls of the source. No cut-off for these calls is given here.

Experiment [1] deals with PC-12. Nature of the experiment: Neuritogenic activity in rat PC12 cells assessed as potentiation of 10 ng/ml NGF-induced neurite outgrowth at 10 uM after 4 days NGF (reference value: 75.89 um). The experiment is classed as functional.
In experiment [2] the test system is PC-12. Nature of the experiment: Neuritogenic activity in rat PC12 cells assessed as potentiation of 10 ng/ml NGF-induced neurite outgrowth at 1 uM after 4 days (reference value: 75.89 um). The format is functional.
Experiment [3] has as its system PC-12. As to the kind of experiment: Neuritogenic activity in rat PC12 cells assessed as potentiation of 10 ng/ml NGF-induced neurite outgrowth at 40 uM after 4 days (reference value: 75.89 um). The experiment is classed as functional.
Experiment [4] relates to PC-12. As to the kind of experiment: Neuritogenic activity in rat PC12 cells assessed as potentiation of 20 ng/ml NGF-induced neurite outgrowth at 10 uM. The experiment is classed as functional, cell-based.
Experiment [5] relates to PC-12. As to the kind of experiment: Neuritogenic activity in rat PC12 cells assessed as elongation of prominences at 40 uM after 72 hrs in presence of 10 ng/ml NGF. The format is functional, cell-based.
The subject of experiment [6] is PC-12. Nature of the experiment: Neuritogenic activity in rat PC12 cells assessed as potentiation of 10 ng/ml NGF-induced neurite outgrowth at 40 uM after 96 hrs. The experiment is classed as functional, cell-based.
Experiment [7] deals with PC-12. Nature of the experiment: Neuritogenic activity in rat PC12 cells assessed as change in cell morphology at 40 uM up to 24 hrs in presence of 10 ng/ml NGF. The format is functional, cell-based.
The test system of experiment [8] is PC-12. Nature of the experiment: Neuritogenic activity in rat PC12 cells assessed as appearance of short prominences at 40 uM after 48 hrs in presence of 10 ng/ml NGF. The experiment is classed as functional, cell-based.

With `CO[C@@]1(C)C[C@@H]2OCC3=CCCC[C@]32O1`, the Activity is on record as 101.6 um in the experiment with PC-12 [1], 91.58 um in the experiment on PC-12 [2] and 122.4 um with PC-12 [3]. The result in the experiment on PC-12 [4] was Active.
For `COC1(C)C[C@@H]2OCC3=CCC[C@@H](CCOC(=O)Cc4cc(=O)oc5cc(N(C)C)ccc45)[C@]32O1` (stereo partly drawn), the outcome in the experiment with PC-12 [5], in the experiment on PC-12 [6] and in the experiment with PC-12 [8] was Active. Also, in the experiment with PC-12 [7], the result was inactive.
As for `CO[C@]1(C)C[C@@H]2OCC3=CCCC[C@]32O1`, the Activity was determined as 110.9 um with PC-12 [1], 99.5 um in the experiment on PC-12 [2] and 125.5 um in the experiment on PC-12 [3]. Besides, in the experiment on PC-12 [4], the result was Active.
For the compound `CCCO[C@]1(C)C[C@@H]2OCC3=CCCC[C@]32O1`, the Activity came to 65.35 um with PC-12 [1] and 76.62 um with PC-12 [3].
Consider `CC1(OCc2ccccc2)C[C@@H]2OCC3=CCCC[C@]32O1` (stereo partly drawn), for which, in the experiment with PC-12 [4], the result was inactive.
Take `CCO[C@@]1(C)C[C@@H]2OCC3=CCCC[C@]32O1`: the figures for the Activity in the experiment on PC-12 [1] and with PC-12 [3] were 86.03 um and 105.8 um, respectively.
In the case of `CCCCO[C@@]1(C)C[C@@H]2OCC3=CCCC[C@]32O1`, the Activity with PC-12 [1] worked out at 47.69 um; in the experiment on PC-12 [3] it was 61.81 um.
As for `CCCCO[C@]1(C)C[C@@H]2OCC3=CCCC[C@]32O1`, the Activity turned out to be 55.82 um in the experiment with PC-12 [1] and 72.88 um with PC-12 [3].
In the case of `CCO[C@]1(C)C[C@@H]2OCC3=CCCC[C@]32O1`, the Activity was determined as 92.24 um in the experiment on PC-12 [1] and 112.5 um in the experiment on PC-12 [3].
With `CC(C)=CCOC1(C)C[C@@H]2OCC3=CCCC[C@]32O1` (stereo partly drawn), in the experiment on PC-12 [4], the outcome was inactive.
On the same count and under the same terms, in the case of `CC1(OC/C=C/c2ccccc2)C[C@@H]2OCC3=CCCC[C@]32O1` (stereo partly drawn) it was “inactive”.
Consider `C=CCOC1(C)C[C@@H]2OCC3=CCCC[C@]32O1` (stereo partly drawn), for which the result in the experiment with PC-12 [4] was inactive.
With `CCCO[C@@]1(C)C[C@@H]2OCC3=CCCC[C@]32O1`, the Activity in the experiment on PC-12 [1] turned out to be 75.46 um; in the experiment on PC-12 [3], 84.11 um.
